The subject of test [1] is cotton aphid (Aphis gossypii). In words: cotton aphid test on cucumber seedling. Conditions: 144 h, 500 ppm spray on infested cucumber seedling, counted after 6 days, read-out: Controlling value (%). In kind it is in vivo.
Test [2] concerns cabbage moth (Plutella xylostella). In words: cabbage moth mortality test on cabbage seedling. Format: in vivo. The following applies: 120 h, 500 ppm spray on cabbage seedling, five second instar larvae, counted after 5 days, read-out: Morality (%). An excerpt:
Any of the present compounds 1-4, 1-5, 1-6, 3-9, 3-13, 3-17, 3-23, 3-25, 3-26, 3-29, 3-31, 4-1 or 5-3, each of which was made to a formulation according to the similar method to that of Formulation Example 6, was mixed with water so as to be 500 ppm. The mixtures were sprayed to foliar parts of the cabbage seedling (on the developmental stage of the second to third true leaf) that was planted in a container so as to adhere adequately on the leaves of the above-mentioned cabbage. After the spraying, the stem and leaf of the seedling was cut out and then was installed into the container that was covered with the filter paper. Five heads of cabbage moth (Plutella xylostella) at the second instar larval stages were released into the cup. After 5 days, the surviving insects were counted, and the mortality of insects was calculated by the following equation. Morality (%)={1−the number of the surviving insects/5}×100

Regarding `CCC(=NN=C(C)c1cc2ccccc2o1)OCc1c(C)cccc1-n1nnn(C)c1=O` [1-2], the pest or weed control at 500 ppm in test [1] is at least 60%.

For the molecule `CCC(=NN=C(C)c1cc2ccccc2s1)OCc1c(C)cccc1-n1nnn(C)c1=O` [1-3], in test [1], the pest or weed control at 500 ppm was at least 60%.

Take `CCC(=NN=C(C)c1cnccn1)OCc1c(C)cccc1-n1nnn(C)c1=O` [1-4]: the pest or weed control at 500 ppm was at least 60% in test [1] and at least 80% in test [2].

Turning to `CCC(=NN=C(C)c1nc2ccccc2s1)OCc1c(C)cccc1-n1nnn(C)c1=O` [1-5], the pest or weed control at 500 ppm in test [2] was at least 80%.

For the molecule `CC(=NN=C(OCc1c(C)cccc1-n1nnn(C)c1=O)N(C)C)c1ccc(F)cc1` [1-6], the pest or weed control at 500 ppm in test [2] is at least 80%.

Consider `CCSC(=NCCc1ccccc1)SCc1c(C)cccc1-n1nnn(C)c1=O` [3-1], for which, in test [1], the pest or weed control at 500 ppm is at least 60%.

`CCc1ccc(N=C(SC)SCc2c(C)cccc2-n2nnn(C)c2=O)cc1` [3-8]: the pest or weed control at 500 ppm in test [1] was at least 60%.

For `CSC(=NCc1ccccc1)SCc1c(C)cccc1-n1nnn(C)c1=O` [3-9], the pest or weed control at 500 ppm in test [2] is at least 80%.

For the molecule `CSC(=NCc1cccc(C)c1)SCc1c(C)cccc1-n1nnn(C)c1=O` [3-11], the pest or weed control at 500 ppm in test [1] was at least 60%.

For the molecule `CSC(=NCc1ccc(C)cc1)SCc1c(C)cccc1-n1nnn(C)c1=O` [3-12], the pest or weed control at 500 ppm in test [1] was at least 60%.

Consider `COc1ccccc1CN=C(SC)SCc1c(C)cccc1-n1nnn(C)c1=O` [3-13], for which, in test [2], the pest or weed control at 500 ppm was at least 80%.

For `CSC(=NC(C)(C)C)SCc1c(C)cccc1-n1nnn(C)c1=O` [3-17], the pest or weed control at 500 ppm in test [2] is at least 80%.

For the molecule `CSC(=NCC1CCOCC1)SCc1c(C)cccc1-n1nnn(C)c1=O` [3-23], the pest or weed control at 500 ppm in test [2] is at least 80%.

As for `CSC(=NCCc1ccccc1F)SCc1c(C)cccc1-n1nnn(C)c1=O` [3-25], the pest or weed control at 500 ppm in test [2] is at least 80%.

Regarding `CSC(=NCCc1cccc(F)c1)SCc1c(C)cccc1-n1nnn(C)c1=O` [3-26], the pest or weed control at 500 ppm in test [2] was at least 80%.

With `CSC(=NCCCCc1ccccc1)SCc1c(C)cccc1-n1nnn(C)c1=O` [3-29], the pest or weed control at 500 ppm in test [1] was at least 60%; in test [2] it was at least 80%.

In the case of `CSC(=NCCc1ccccc1Cl)SCc1c(C)cccc1-n1nnn(C)c1=O` [3-31], the pest or weed control at 500 ppm in test [2] is at least 80%.

In the case of `CSC(=Nc1cccc(C(F)(F)F)c1)SCc1c(C)cccc1-n1nnn(C)c1=O` [4-1], the pest or weed control at 500 ppm in test [2] is at least 80%.

For `CSC(=Nc1ccc(F)cc1)SCc1c(C)cccc1-n1nnn(C)c1=O` [4-6], in test [1], the pest or weed control at 500 ppm is at least 60%.

`CC(=NOCc1c(C)cccc1-n1nnn(C)c1=O)OCCCc1ccccc1` [5-3]: the pest or weed control at 500 ppm was at least 60% in test [1] and at least 80% in test [2].

`CCON=C(C)C(C)=NN=C(CC)OCc1c(C)cccc1-n1nnn(C)c1=O` [A-2]: in test [1], the pest or weed control at 500 ppm is at least 60%.

Consider `CCC(=NN=C(C)C(C)=NOC(C)C)OCc1c(C)cccc1-n1nnn(C)c1=O` [A-3], for which the pest or weed control at 500 ppm is at least 60% in test [1] and at least 80% in test [2].

As to `CCC(=NN=C(C)C(C)=NO)OCc1c(C)cccc1-n1nnn(C)c1=O` [B-1], the pest or weed control at 500 ppm in test [2] is at least 80%.

Take `CCC(=NN=C(C)C(C)=NOCc1ccccc1)OCc1c(C)cccc1-n1nnn(C)c1=O` [C-1]: the pest or weed control at 500 ppm in test [1] was at least 60%; in test [2], at least 80%.

With `C=CCON=C(C)C(C)=NN=C(CC)OCc1c(C)cccc1-n1nnn(C)c1=O` [C-2], the pest or weed control at 500 ppm in test [1] is at least 60%; in test [2], at least 80%.

Consider `CC=CCON=C(C)C(C)=NN=C(CC)OCc1c(C)cccc1-n1nnn(C)c1=O` [C-3], for which the pest or weed control at 500 ppm in test [1] is at least 60%; in test [2], at least 80%.

As to `C#CCON=C(C)C(C)=NN=C(CC)OCc1c(C)cccc1-n1nnn(C)c1=O` [C-5], the pest or weed control at 500 ppm in test [2] is at least 80%.

For `CCC(=NN=C(C)C(C)=NOCc1ccccc1C)OCc1c(C)cccc1-n1nnn(C)c1=O` [C-7], in test [1], the pest or weed control at 500 ppm is at least 60%.

For `CCC(=NN=C(C)C(C)=NOCc1cccc(OC)c1)OCc1c(C)cccc1-n1nnn(C)c1=O` [C-10], the pest or weed control at 500 ppm is at least 60% in test [1] and at least 80% in test [2].

`CCC(=NN=C(C)C(C)=NOCc1cccc(C)c1)OCc1c(C)cccc1-n1nnn(C)c1=O` [C-11]: the pest or weed control at 500 ppm is at least 60% in test [1] and at least 80% in test [2].

In the case of `CCC(=NN=C(C)C(C)=NOCc1ccc(OC)cc1)OCc1c(C)cccc1-n1nnn(C)c1=O` [C-12], the pest or weed control at 500 ppm is at least 60% in test [1] and at least 80% in test [2].

With `CCC(=NN=C(C)C(C)=NOCC#N)OCc1c(C)cccc1-n1nnn(C)c1=O` [C-13], the pest or weed control at 500 ppm in test [2] was at least 80%.

As for `CCC(=NN=C(C)C(C)=NOCCOC)OCc1c(C)cccc1-n1nnn(C)c1=O` [C-14], the pest or weed control at 500 ppm in test [1] was at least 60%; in test [2], at least 80%.

As to `CCC(=NN=C(C)c1c(C)nn(C)c1Cl)OCc1c(C)cccc1-n1nnn(C)c1=O` [D-1], the pest or weed control at 500 ppm in test [1] is at least 60%; in test [2], at least 80%.

For the molecule `CCC(=NN=C(C)c1ccc2c(c1)CCO2)OCc1c(C)cccc1-n1nnn(C)c1=O` [D-2], the pest or weed control at 500 ppm in test [1] was at least 60%; in test [2], at least 80%.

As for `CCC(=NN=C(C)c1ccc2scnc2c1)OCc1c(C)cccc1-n1nnn(C)c1=O` [D-3], the figures for the pest or weed control at 500 ppm in test [1] and in test [2] were at least 60% and at least 80%, respectively.

`CCC(=NN=C(C)c1cnc2ccccc2c1)OCc1c(C)cccc1-n1nnn(C)c1=O` [D-5]: the pest or weed control at 500 ppm in test [1] is at least 60%; in test [2] it was at least 80%.

Regarding `CCC(=NN=C(C)c1cc2ccccc2n1C)OCc1c(C)cccc1-n1nnn(C)c1=O` [D-6], the pest or weed control at 500 ppm in test [1] is at least 60%.

As for `CCC(=NN=C(C)c1ccc2c(ccn2C)c1)OCc1c(C)cccc1-n1nnn(C)c1=O` [D-7], in test [1], the pest or weed control at 500 ppm is at least 60%.

As to `CCC(=NN=C(C)c1ccc2c(c1)OCO2)OCc1c(C)cccc1-n1nnn(C)c1=O` [D-8], the pest or weed control at 500 ppm is at least 60% in test [1] and at least 80% in test [2].

Turning to `CCC(=NN=C(C)c1cccc2c1OC(F)(F)O2)OCc1c(C)cccc1-n1nnn(C)c1=O` [D-9], the pest or weed control at 500 ppm in test [1] was at least 60%.

On to `CCC(=NN=C(C)c1ccn(C)n1)OCc1c(C)cccc1-n1nnn(C)c1=O` [D-19], for which the pest or weed control at 500 ppm in test [2] was at least 80%.

For the molecule `CCC(=NN=C1CCc2c(F)cccc21)OCc1c(C)cccc1-n1nnn(C)c1=O` [E-2], in test [1], the pest or weed control at 500 ppm is at least 60%.

Regarding `CCC(=NN=C1CCc2cc(F)ccc21)OCc1c(C)cccc1-n1nnn(C)c1=O` [E-3], the pest or weed control at 500 ppm in test [1] is at least 60%.

`CCC(=NN=C1CCc2ccc(F)cc21)OCc1c(C)cccc1-n1nnn(C)c1=O` [E-4]: the pest or weed control at 500 ppm in test [1] was at least 60%.

In the case of `CCC(=NN=C1CCc2cccc(F)c21)OCc1c(C)cccc1-n1nnn(C)c1=O` [E-5], in test [2], the pest or weed control at 500 ppm is at least 80%.

In the case of `CCC(=NN=C1CCc2ccc(OC)cc21)OCc1c(C)cccc1-n1nnn(C)c1=O` [E-8], the pest or weed control at 500 ppm in test [1] was at least 60%.

As to `CCC(=NN=C1COc2ccccc21)OCc1c(C)cccc1-n1nnn(C)c1=O` [E-10], the pest or weed control at 500 ppm in test [1] was at least 60%.

In the case of `CCC(=NN=C1CCOc2ccccc21)OCc1c(C)cccc1-n1nnn(C)c1=O` [E-11], in test [1], the pest or weed control at 500 ppm is at least 60%.

For `CCC(=NN=C1CCOc2ccccc21)OCc1c(OC)cccc1-n1nnn(C)c1=O` [E-12], the pest or weed control at 500 ppm is at least 60% in test [1] and at least 80% in test [2].

As for `CCC(=NN=C1CCOc2ccccc21)OCc1c(Cl)cccc1-n1nnn(C)c1=O` [E-13], in test [2], the pest or weed control at 500 ppm was at least 80%.

`CCC(=NN=C1CCOc2ccccc21)OCc1c(C2CC2)cccc1-n1nnn(C)c1=O` [E-14]: the pest or weed control at 500 ppm in test [1] was at least 60%; in test [2], at least 80%.

Turning to `CCC(=NN=C1CCOc2cccc(F)c21)OCc1c(C)cccc1-n1nnn(C)c1=O` [E-21], the pest or weed control at 500 ppm in test [2] was at least 80%.

For the molecule `CCC(=NN=C1CCOc2cc(F)cc(F)c21)OCc1c(C)cccc1-n1nnn(C)c1=O` [E-24], the figures for the pest or weed control at 500 ppm in test [1] and in test [2] were at least 60% and at least 80%, respectively.

As for `CCC(=NN=C1CCCc2ccccc21)OCc1c(C)cccc1-n1nnn(C)c1=O` [E-25], the figures for the pest or weed control at 500 ppm in test [1] and in test [2] were at least 60% and at least 80%, respectively.

As to `CCC(=NN=C1CCOc2ccc(C)cc21)OCc1c(C)cccc1-n1nnn(C)c1=O` [E-26], the figures for the pest or weed control at 500 ppm in test [1] and in test [2] were at least 60% and at least 80%, respectively.

For the molecule `CCC(=NN=C1CCOc2c(F)ccc(F)c21)OCc1c(C)cccc1-n1nnn(C)c1=O` [E-27], the pest or weed control at 500 ppm in test [1] was at least 60%; in test [2] it was at least 80%.

As to `CCC(=NN=C1CCSc2ccccc21)OCc1c(C)cccc1-n1nnn(C)c1=O` [E-28], the pest or weed control at 500 ppm in test [1] was at least 60%; in test [2] it was at least 80%.

Consider `CCC(=NN=C1CC[S+]([O-])c2ccccc21)OCc1c(C)cccc1-n1nnn(C)c1=O` (stereo not shown) [E-29], for which the pest or weed control at 500 ppm in test [1] was at least 60%; in test [2], at least 80%.

On to `CCC(=NN=C1CCOc2cc(OC)ccc21)OCc1c(C)cccc1-n1nnn(C)c1=O` [E-30], for which the pest or weed control at 500 ppm in test [1] is at least 60%; in test [2], at least 80%.

The values above are taken from patent US11225470B2, “Tetrazolinone compounds and its use as pest control agents” (SUMITOMO CHEMICAL COMPANY, LIMITED, priority 2016, dated 2022).
